Data from patent US5273991A, “Imidazole-containing compositions and methods of use thereof analogs of distamycin” (Research Corporation Technologies, Inc., priority 1992, dated 1993).
pIC50: −log10 of the molar value.

Assays:
[1] = test system: human chronic myelogenous leukemic K562 cells; experiment: growth inhibition of K562 cells (MTT viability assay); type: cell-based; settings: 1 hour drug exposure at 37° C.; 5-6 days; MTT
Method: The ability of the compounds of the present invention to inhibit the growth of human chronic myelogenous leukemic K562 cells was determined as follows.
The incubation was terminated by centrifugation (5 minutes, 300 g) and the cells washed once with drug-free medium.
Following the appropriate drug treatment, the cells were transferred to 96-well microtiter plates, 10^4 cells per well, 8 wells per sample. Plates were then kept in the dark at 37° C. in a humidified atmosphere containing 5% CO2. […] Following incubation of the plates of 5-6 days (to allow control cells to increase in the number by 10 fold) 20 μL of a 5 mg/mL solution of MTT in phosphate buffered saline was added to each well and the plates further incubated for 5 h. The plates were then centrifuged for 5 minutes at 300 g and the bulk of the medium pipetted from the cell pellet leaving 10-20 μL per well. 200 μL DMSO was added to each well and the samples agitated to ensure complete mixing. The optical density was then read at a wavelength of 550 nm on a Titertek Multiscan ELISA plate reader and the dose-response curve constructed.

T4 coliphage DNA = experiment: ethidium displacement assay, T4 coliphage DNA; type: binding; settings: ± 0.02 × 10^5 M^-1, pH 7.4
Description: The ethidium displacement assay is based on the fact that ethidium binding to DNA causes a large (approximately 25 fold) florescence enhancement as a result of the hydrophobic environment surrounding the ethidium molecule. Displacement of ethidium results in decreased fluorescence, and thus binding constants of drugs to DNA can be estimated and compared by measuring the loss of fluorescence as a function of added drug. The drug concentration which produces 50% inhibition of florescence is approximately inversely proportional to the apparent binding constant.
The apparent binding constants for T4 coliphage DNA are an indicator of the minor groove selectivity of the compounds of the present invention. The major groove of T4 coliphage DNA is blocked by α-glycosylation of the 5-hydroxymethylcytidine residues; therefore, the non-intercalating agents that bind to T4 coliphage DNA must interact in the minor groove [Lown (1982) Acc. Chem. Res., 15, 381].
The relative DNA binding constants (Kapp) of distamycin and Compounds 6-10 to calf thymus DNA, T4 coliphage DNA, poly(dAdT) and poly(dGdC) were determined using the ethidium displacement assay (Morgan et al., 1979). The Kapp of ethidium bromide (Debart et al., 1989) is included for comparison. 25 μL of a 2A260 DNA solution was added to 2 mL of ethidium bromide buffer (250 μL of 1.3 mM ethidium bromidestock, 314.9 mg Tris-HCl, 60.8 mg Tris base and 930/mg of Na2 EDTA.2H2 O in 250 ml H2 O) pH 7.4 and the maximum fluorescence was measured (excitation wavelength=546 nm, emission wavelength=600 nm) at ambient temperature.
DNA solutions of 2A260 were prepared as follows: T4 coliphage DNA: 10 units of DNA were dissolved in 1 mL of 10 mM sodium phosphate (pH 7.1) and 0.25 mM EDTA buffer to give a 10A260 solution. 0.3 mL of the stock solution were diluted to 1.5 mL with 10 mM sodium phosphate (pH 7.1) and 0.25 mM EDTA buffer to give a 2A260 solution. Calf thymus DNA: 100 units of DNA were dissolved in 5 mL of 10 mM sodium phosphate (pH 7.1) and 0.25 mM EDTA buffer to give a 20A260 solution. 1.5 mL of the stock solution were diluted to 15 mL with 10 mM sodium phosphate (pH 7.1) and 0.25 mM EDTA buffer to give a 2A260 solution. Poly(dA-dT) and Poly(dG-dC) DNA: 100 units of DNA were dissolved in 10 mL of 10 mM sodium phosphate pH 7.1) and 0.25 mM EDTA buffer to give a 10A260 solution. 3 mL of the stock solution were diluted to 15 mL with 10 mM sodium phosphate (pH 7.1) and 0.25 mM EDTA buffer to give a 2A260 solution.
Aliquots of 10 mM stock drug solution (1 mg of drug to be tested was dissolved with 1 mole equivalent of 0.1M HCl, and then diluted with appropriate volume of distilled water to make a 10 mM solution) were then added to the fluorescing solution and the florescence measured after each addition until a 50% reduction of fluorescence occurred. If the 10 mM stock solution lowered the % fluorescence too quickly, the stock solution was further diluted to 1 mM prior to titration. The apparent binding constant was then calculated from this equation: KEtBr [EtBr]=Kapp [drug], where [drug]=the concentration of drug at a 50% reduction of fluorescence and KEtBr [1×10^7 M^-1 for calf thymus and coliphage T4 DNA^18, 9.5×10^6 M^-1 for poly(dA.dT)^30, and 9.9×10^6 M^-1 for poly(dG.dC)^30 ] and [EtBr] were known. The concentration of ethidium bromide was 1.3 μM. The Kapp values are shown in Table I. In a separate experiment, the Kapp of Compound 5 for calf thymus DNA and poly[dGdC] were determined to be 0.3×10^5 M^-1 and 2.6×10^5 M^-1, respectively. The error in these measurements is ±[…].

Structure (SMILES)	pIC50 [1]	Association constant Kapp (T4 coliphage DNA) [M⁻¹]
CN(C)CCNC(=O)c1nc(NC(=O)c2nc(NC(=O)c3ccc(N(CCCl)CCCl)cc3)cn2C)cn1C [Compound 6, N-(N',N'-dimethylaminoethyl)-1-methyl-4-{4-[4,4-bis(2-chloroethyl)aminobenzamido]-1-methylimidazole-2-carboxamido}imidazole-2-carboxamide]	4.90	236000
CN(C)CCNC(=O)c1nc(NC(=O)c2nc(NC(=O)c3nc(NC(=O)c4ccc(N(CCCl)CCCl)cc4)cn3C)cn2C)cn1C [Compound 7, N-(N',N'-dimethylaminoethyl)-1-methyl-4-{1-methyl-4-[4-(4,4-bis-(2-chloroethyl)aminobenzamido)-1-methylimidazole-2-carboxamido]imidazole-2-carboxamido}imidazole-2-carboxamide]	6.52	168000
CN(C)CCNC(=O)c1nc(NC(=O)c2nc(NC(=O)c3nc(NCc4ccc(N(CCCl)CCCl)cc4)cn3C)cn2C)cn1C [Compound 8, N-(N',N'-dimethylaminoethyl)-1-methyl-4-{1-methyl-4-[4-(4,4-bis-(2-chloroethyl)aminobenzylamino)-1-methylimidazole-2-carboxamido]imidazole-2-carboxamido}imidazole-2-carboxamide]	6.07	193000
CN(C)CCNC(=O)c1nc(NC(=O)c2nc(NC(=O)CCCc3ccc(N(CCCl)CCCl)cc3)cn2C)cn1C [Compound 9, N-(N',N'-dimethylaminoethyl)-1-methyl-4-{4-[4,4-bis(2-chloroethyl)aminophenyl-1-butanamido]-1-methylimidazole-2-carboxamido}imidazole-2-carboxamide]	4.15	75000
CN(C)CCNC(=O)c1nc(NC(=O)c2nc(NC(=O)c3nc(NC(=O)CCCc4ccc(N(CCCl)CCCl)cc4)cn3C)cn2C)cn1C [Compound 10, N-(N',N'-dimethylaminoethyl)-1-methyl-4-{1-methyl-4-[4-(4,4-bis(2-chloroethyl)aminophenyl-1-butanamido)-1-methylimidazole-2-carboxamido]imidazole-2-carboxamido}imidazole-2-carboxamide]	4.55	19000
